Experimental data from the supplement of paper PMC12420376.

What was measured:
KURAMOCHI = experiment: drug sensitivity score (DSS2) on cancer cell count; higher = more sensitive; extreme values may be limits of the assay; conditions: 72 h
Method in brief: (§1)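 Cancer cell counts came from 10× images (4 fields) of fixed cells immunostained for CK8/18 with Hoechst. The ovarian cancer cells had been grown alone or in 1:1 direct co-culture with lung or skin fibroblasts on 384-well plates pre-spotted acoustically with 528 approved and investigational compounds at 5 concentrations, then treated for 72 h. Breeze was used to derive a drug sensitivity score from logistic fits of the data.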

OVCAR8 = experiment: as above; conditions: 72 h
Method in brief: as §1

[1] = co-cultured fibroblast: BJHTERT
[2] = co-cultured fibroblast: none (monoculture)

| SMILES | drug sensitivity score (KURAMOCHI; [1]) [DSS] | drug sensitivity score (KURAMOCHI; co-cultured fibroblast: WI38) [DSS] | drug sensitivity score (KURAMOCHI; [2]) [DSS] | drug sensitivity score (OVCAR8; [1]) [DSS] | drug sensitivity score (OVCAR8; co-cultured fibroblast: WI38) [DSS] | drug sensitivity score (OVCAR8; [2]) [DSS] |
| --- | --- | --- | --- | --- | --- | --- |
| COC[C@H](NC(=O)c1cnc(C)s1)C(=O)N[C@@H](COC)C(=O)N[C@@H](Cc1ccccc1)C(=O)[C@@]1(C)CO1 [Oprozomib] | 15.7 | 15.1 | 12.6 | 17.7 | 12.7 | 10.8 |
| CNC(=O)c1ccc2cc([C@@]3(O)CCn4cncc43)ccc2c1 [Orteronel] | 0 | 0 | 0.5 | 0 | 0.3 | 0 |
| C=CC(=O)Nc1cc(Nc2nccc(-c3cn(C)c4ccccc34)n2)c(OC)cc1N(C)CCN(C)C [Osimertinib] | 10.7 | 6.8 | 10.7 | 6.8 | 0.6 | 3.7 |
| O=C(O)C(=O)O.[NH-][C@@H]1CCCC[C@H]1[NH-].[Pt+2] [Oxaliplatin] | 9.3 | 16 | 18.1 | 13.9 | 19.6 | 18.2 |
| C=CCc1cccc(/C=N/NC(=O)CN2CCN(Cc3ccccc3)CC2)c1O [PAC-1] | 2.7 | 3.3 | 4.9 | 7.4 | 1.5 | 4.9 |
| O=C(Nc1cccnc1)N1CCC(Cc2cccc(Oc3ccc(C(F)(F)F)cn3)c2)CC1 [PF-3845] | 0.5 | 0 | 0 | 0 | 0 | 1.9 |
| CN1CCN(c2cc(C(=O)Nc3ccc4c(c3)-c3c(c(C(N)=O)nn3-c3ccc(F)cc3)CC4)c(Cl)cn2)CC1 [PHA 408] | 5.8 | 1.9 | 1.6 | 0.5 | 8.6 | 4.8 |
| O=C(Nc1cc(Cl)cc2c1[nH]c1cnccc12)c1cccnc1 [PS-1145] | 0.6 | 3.2 | 2.1 | 0 | 0 | 1.8 |
| COc1cc(Br)c(Nc2nc(-c3c(C)nc4ncccn34)cs2)c(Br)c1 [PTC-209] | 2.4 | 3.6 | 7.9 | 9.1 | 3.1 | 6.9 |
| CC(=O)O[C@H]1C(=O)[C@@]2(C)[C@H]([C@H](OC(=O)c3ccccc3)[C@]3(O)C[C@H](OC(=O)[C@H](O)[C@@H](NC(=O)c4ccccc4)c4ccccc4)C(C)=C1C3(C)C)[C@]1(OC(C)=O)CO[C@@H]1C[C@@H]2O [Paclitaxel] | 23.2 | 24.5 | 16.1 | 29.6 | 30.9 | 24 |
| C1=N/C2=N/c3ccc(OCCN4CCCC4)c(c3)COC/C=C/COCc3cccc(c3)C(=C1)N2 [Pacritinib] | 8.2 | 8.6 | 4.4 | 9.5 | 5.6 | 7.7 |
| CC(=O)c1c(C)c2cnc(Nc3ccc(N4CCNCC4)cn3)nc2n(C2CCCC2)c1=O [Palbociclib] | 6.2 | 7.5 | 13.9 | 6.6 | 0.3 | 3.9 |
| COc1ccc(COc2cc3oc(=O)c4cc(C(C)O)ccc4c3cc2OC)cc1 (stereo not given) [Palomid-529] | 0 | 0 | 0 | 1.1 | 1 | 0 |
| Cc1[nH]c2ccccc2c1CCNCc1ccc(/C=C/C(=O)NO)cc1 [Panobinostat] | 14.8 | 19.4 | 21.8 | 28.1 | 20.1 | 26.4 |
| Cc1ccc(Nc2nccc(N(C)c3ccc4c(C)n(C)nc4c3)n2)cc1S(N)(=O)=O [Pazopanib] | 2 | 2 | 5.9 | 0 | 3.5 | 0 |
| Nc1nc2[nH]cc(CCc3ccc(C(=O)N[C@@H](CCC(=O)O)C(=O)O)cc3)c2c(=O)[nH]1 [Pemetrexed] | 10.1 | 16 | 13.6 | 16.4 | 19.3 | 25.5 |
| OC[C@H]1O[C@@H](n2cnc3c2N=CNC[C@H]3O)C[C@@H]1O [Pentostatin] | 0 | 0 | 0 | 0 | 2.8 | 0 |
| CCCCCCCCCCCCCCCCCCOP(=O)([O-])OC1CC[N+](C)(C)CC1 [Perifosine] | 0 | 0 | 0 | 0 | 0 | 0 |
| NS(=O)(=O)OC[C@@H]1C[C@@H](n2ccc3c(N[C@H]4CCc5ccccc54)ncnc32)C[C@@H]1O [Pevonedistat] | 14 | 19.1 | 18.2 | 20.9 | 12.5 | 26.4 |
| FC(F)(F)c1ccc(CNc2ccc(Cc3c[nH]c4ncc(Cl)cc34)cn2)cn1 [Pexidartinib] | 0 | 1.4 | 12.1 | 0 | 0.1 | 0.7 |

| SMILES | drug sensitivity score (KURAMOCHI; [1]) [DSS] | drug sensitivity score (KURAMOCHI; co-cultured fibroblast: WI38) [DSS] | drug sensitivity score (KURAMOCHI; [2]) [DSS] | drug sensitivity score (OVCAR8; [1]) [DSS] | drug sensitivity score (OVCAR8; co-cultured fibroblast: WI38) [DSS] | drug sensitivity score (OVCAR8; [2]) [DSS] |
| --- | --- | --- | --- | --- | --- | --- |
| CS(=O)(=O)N1CCN(Cc2cc3nc(-c4cccc5[nH]ncc45)nc(N4CCOCC4)c3s2)CC1 [Pictilisib] | 15 | 12.1 | 18.2 | 6.7 | 5.4 | 7.9 |
| CC[C@@H]1C(=O)OC[C@@H]1Cc1cncn1C [Pilocarpine] | 0 | 0 | 0 | 0 | 19.4 | 0 |
| CC(C)N(C[C@H]1O[C@@H](n2cnc3c(N)ncnc32)[C@H](O)[C@@H]1O)[C@H]1C[C@@H](CCc2nc3cc(C(C)(C)C)ccc3[nH]2)C1 [Pinometostat] | 0 | 0 | 0 | 0 | 0 | 0 |
| Cc1ccc(=O)n(-c2ccccc2)c1 [Pirfenidone] | 1.8 | 0 | 0 | 0 | 0.7 | 0 |
| NCCNc1ccc(NCCN)c2c1C(=O)c1ccncc1C2=O [Pixantrone] | 0 | 0.1 | 9.4 | 1.7 | 0 | 0 |
| c1cc(CN2CCCNCCNCCCNCC2)ccc1CN1CCCNCCNCCCNCC1 [Plerixafor] | 0 | 0 | 0.6 | 0.5 | 0 | 0.3 |
| Nc1cccc2c1C(=O)N(C1CCC(=O)NC1=O)C2=O (stereo not given) [Pomalidomide] | 0 | 0 | 0 | 0 | 0 | 0 |
| Cc1ccc(C(=O)Nc2ccc(CN3CCN(C)CC3)c(C(F)(F)F)c2)cc1C#Cc1cnc2cccnn12 [Ponatinib] | 8.3 | 6.3 | 21.9 | 3.5 | 6.5 | 3.1 |
| C=CC(=O)N1CCC(Oc2cc3c(Nc4ccc(Cl)c(Cl)c4F)ncnc3cc2OC)CC1 [Poziotinib] | 4.4 | 7.9 | 3 | 4 | 0.2 | 0.3 |
| CCCCc1nc2cc(/C=C/C(=O)NO)ccc2n1CCN(CC)CC [Pracinostat] | 15.7 | 20.4 | 19.8 | 23.1 | 20.4 | 25.5 |
| CC[C@H](C)C(=O)O[C@H]1C[C@H](O)C=C2C=C[C@H](C)[C@H](CC[C@@H](O)C[C@@H](O)CC(=O)O)[C@H]21 [Pravastatin] | 0 | 0 | 0 | 0 | 1.9 | 0 |
| C[C@]12C=CC(=O)C=C1CC[C@@H]1[C@@H]2[C@@H](O)C[C@@]2(C)[C@H]1CC[C@]2(O)C(=O)CO [Prednisolone] | 0 | 0 | 0 | 0.3 | 0 | 0 |
| COc1cccc(OCCCN)c1-c1cc(Nc2cnc(C#N)cn2)n[nH]1 [Prexasertib] | 25.7 | 23.7 | 30.7 | 35 | 33.7 | 29.8 |
| Cn1cc(CNCC2CCN(c3ncc(C(=O)NO)cn3)CC2)c2ccccc21 [Quisinostat] | 15 | 17 | 18.9 | 22.6 | 15.3 | 22.4 |
| CC(C)(C)c1cc(NC(=O)Nc2ccc(-c3cn4c(n3)sc3cc(OCCN5CCOCC5)ccc34)cc2)no1 [Quizartinib] | 0 | 0 | 0 | 3.6 | 6.2 | 0 |
| Nc1cc(F)ccc1NC(=O)/C=C/c1cnn(C/C=C/c2ccccc2)c1 [RGFP966] | 3.9 | 6 | 4 | 1.6 | 0.6 | 4.4 |
| COC(=O)c1ccc([C@H]2c3[nH]c4ccccc4c3C[C@H](C(=O)OC)N2C(=O)CCl)cc1 [RSL3] | 0 | 0 | 2.5 | 0 | 0 | 0 |
| Cc1cnc(NC(=O)Nc2cc(Br)c(C)cc2OC[C@@H]2CNCCO2)cn1 [Rabusertib] | 0.4 | 0 | 0 | 0.2 | 0 | 0 |
| Cc1cn(-c2cc(NC(=O)c3ccc(C)c(Nc4nccc(-c5cnccn5)n4)c3)cc(C(F)(F)F)c2)cn1 [Radotinib] | 0 | 0 | 0 | 0 | 6.2 | 1.2 |
| CC(C)(C)Cn1c(N)nc2ccc(-c3[nH]c(C(C)(C)C)nc3-c3ccc(F)cc3)nc21 [Ralimetinib] | 10.8 | 1.7 | 0 | 0 | 0 | 2.5 |
